The values that follow come from patent US20060106102A1, “Napththalene derivatives which inhibit the cytokine or biological activity of microphage migration inhibitory factor (mif)” (priority 2002, published 2006).

This assay concerns antigen-specific T cell activation (splenic T lymphocytes from mBSA-immunised mice). Put plainly: antigen-specific (mBSA) activation of splenic T lymphocytes in vitro, 3H-thymidine incorporation. It counts as cell-based, C57BL6/J mice. Conditions: Mus musculus, T-cell, read-out: EC50 (T cell activation suppressed by 50% compared to vehicle-only-treated cells). An outline of the steps: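 Splenocytes from mBSA-immunised mice, erythrocytes lysed, stimulated with mBSA 10–50 μg/mL for 30 h at 37 °C, 5% CO2. 3H-thymidine (0.5 μCi/well) then added for 18 h; proliferation read by scintillation counting.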
On the technique in general: Incorporation of labelled thymidine or its analogues reports DNA synthesis.

Where two headings read alike, the source gives them in different places.

In the case of `O=S(=O)(O)c1ccc2cc(O)c(O)cc2c1` [Compound 6, 6,7-dihydroxynaphthalene-2-sulfonic acid], the EC50 is, setting by setting: (mBSA 10 μg/ml) 21.8 µM; (mBSA 50 μg/ml) 104 µM.

The EC50 is the concentration needed to bring the measured effect to its halfway point.
